Assay results: the supplement of paper PMC10307832

What was measured:
Assay in all cases: relative viability (nuclei count vs DMSO), 5 days (fraction); higher = more cells survive
BEN = system: BEN
Summary of the method: (§1)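 Cells from lung cancer lines were seeded into 1536-well plates and, one day later, dosed by pin tool. Treatments were either a single drug or a fixed dose of an anchor drug with five library-drug doses (not always all listed) in √10 steps. After 5 days, nuclei were stained in a one-step fixation (final 0.05% Triton X-100, 1% formaldehyde, 1 ug/ml Hoechst) and counted on 4× images, and relative viability is the treated-to-vehicle nuclei ratio, as the median of duplicate plates.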

CAL-12T = system: CAL-12T
Summary of the method: as §1

COR-L23 = system: COR-L23
Summary of the method: as §1

HCC-366 = system: HCC-366
Summary of the method: as §1

LOU-NH91 = system: LOU-NH91
Summary of the method: as §1

LU99A = system: LU99A
Summary of the method: as §1

NCI-H1355 = system: NCI-H1355
Summary of the method: as §1

NCI-H1437 = system: NCI-H1437
Summary of the method: as §1

NCI-H1650 = system: NCI-H1650
Summary of the method: as §1

NCI-H1651 = system: NCI-H1651
Summary of the method: as §1

NCI-H1734 = system: NCI-H1734
Summary of the method: as §1

NCI-H1793 = system: NCI-H1793
Summary of the method: as §1

NCI-H1975 = system: NCI-H1975
Summary of the method: as §1

NCI-H2023 = system: NCI-H2023
Summary of the method: as §1

NCI-H2085 = system: NCI-H2085
Summary of the method: as §1

NCI-H2342 = system: NCI-H2342
Summary of the method: as §1

NCI-H358 = system: NCI-H358
Summary of the method: as §1

NCI-H441 = system: NCI-H441
Summary of the method: as §1

NCI-H460 = system: NCI-H460
Summary of the method: as §1

NCI-H838 = system: NCI-H838
Summary of the method: as §1

SK-LU-1 = system: SK-LU-1
Summary of the method: as §1

`COc1cc2nccc(Oc3ccc(NC(=O)Nc4cc(C)on4)c(Cl)c3)c2cc1OC` [Tivozanib] + CC(=O)c1c(C)c2cnc(Nc3ccc(N4CCNCC4)cn3)nc2n(C2CCCC2)c1=O [Palbociclib] (partner 0.5 µM) was tested, and the relative viability (BEN; first compound 0.005 µM) was 0.508, the relative viability (BEN; first compound 0.01581 µM) was 0.497 and the relative viability (BEN; first compound 0.05 µM) was 0.453. The relative viability (BEN; first compound 0.1581 µM) was 0.44, the relative viability (BEN; first compound 0.5 µM) was 0.459 and the relative viability (CAL-12T; first compound 0.005 µM) was 0.407. It also gave a relative viability (CAL-12T; first compound 0.01581 µM) of 0.433, a relative viability (CAL-12T; first compound 0.05 µM) of 0.465 and a relative viability (CAL-12T; first compound 0.1581 µM) of 0.224. It also gave a relative viability (CAL-12T; first compound 0.5 µM) of 0.402, a relative viability (COR-L23; first compound 0.005 µM) of 0.246 and a relative viability (COR-L23; first compound 0.01581 µM) of 0.294. The relative viability (COR-L23; first compound 0.05 µM) was 0.319, the relative viability (COR-L23; first compound 0.1581 µM) was 0.282 and the relative viability (COR-L23; first compound 0.5 µM) was 0.213. It also gave a relative viability (HCC-366; first compound 0.005 µM) of 0.394, a relative viability (HCC-366; first compound 0.01581 µM) of 0.422 and a relative viability (HCC-366; first compound 0.05 µM) of 0.362. The relative viability (HCC-366; first compound 0.1581 µM) was 0.343, the relative viability (HCC-366; first compound 0.5 µM) was 0.322 and the relative viability (LOU-NH91; first compound 0.005 µM) was 0.431. For the same molecule, the relative viability (LOU-NH91; first compound 0.01581 µM) was 0.498, the relative viability (LOU-NH91; first compound 0.05 µM) was 0.513 and the relative viability (LOU-NH91; first compound 0.1581 µM) was 0.549. It also gave a relative viability (LOU-NH91; first compound 0.5 µM) of 0.538, a relative viability (LU99A; first compound 0.005 µM) of 0.431 and a relative viability (LU99A; first compound 0.01581 µM) of 0.412. It also gave a relative viability (LU99A; first compound 0.05 µM) of 0.429, a relative viability (LU99A; first compound 0.1581 µM) of 0.306 and a relative viability (LU99A; first compound 0.5 µM) of 0.408. For the same molecule, the relative viability (NCI-H1355; first compound 0.005 µM) was 0.401, the relative viability (NCI-H1355; first compound 0.01581 µM) was 0.447 and the relative viability (NCI-H1355; first compound 0.05 µM) was 0.445. The relative viability (NCI-H1355; first compound 0.1581 µM) was 0.326, the relative viability (NCI-H1355; first compound 0.5 µM) was 0.417 and the relative viability (NCI-H1437; first compound 0.005 µM) was 0.364. It also gave a relative viability (NCI-H1437; first compound 0.01581 µM) of 0.344, a relative viability (NCI-H1437; first compound 0.05 µM) of 0.286 and a relative viability (NCI-H1437; first compound 0.1581 µM) of 0.368. The relative viability (NCI-H1437; first compound 0.5 µM) was 0.26, the relative viability (NCI-H1650; first compound 0.005 µM) was 0.328 and the relative viability (NCI-H1650; first compound 0.01581 µM) was 0.304. It also gave a relative viability (NCI-H1650; first compound 0.05 µM) of 0.336, a relative viability (NCI-H1650; first compound 0.1581 µM) of 0.389 and a relative viability (NCI-H1650; first compound 0.5 µM) of 0.319. The relative viability (NCI-H1651; first compound 0.005 µM) was 0.524, the relative viability (NCI-H1651; first compound 0.01581 µM) was 0.516 and the relative viability (NCI-H1651; first compound 0.05 µM) was 0.522. It also gave a relative viability (NCI-H1651; first compound 0.1581 µM) of 0.547, a relative viability (NCI-H1651; first compound 0.5 µM) of 0.543 and a relative viability (NCI-H1734; first compound 0.005 µM) of 0.313. It also gave a relative viability (NCI-H1734; first compound 0.01581 µM) of 0.34, a relative viability (NCI-H1734; first compound 0.05 µM) of 0.335 and a relative viability (NCI-H1734; first compound 0.1581 µM) of 0.336. It also gave a relative viability (NCI-H1734; first compound 0.5 µM) of 0.345, a relative viability (NCI-H1793; first compound 0.005 µM) of 0.309 and a relative viability (NCI-H1793; first compound 0.01581 µM) of 0.343. For the same molecule, the relative viability (NCI-H1793; first compound 0.05 µM) was 0.354, the relative viability (NCI-H1793; first compound 0.5 µM) was 0.422 and the relative viability (NCI-H1975; first compound 0.005 µM) was 0.585. For the same molecule, the relative viability (NCI-H1975; first compound 0.01581 µM) was 0.609, the relative viability (NCI-H1975; first compound 0.05 µM) was 0.648 and the relative viability (NCI-H1975; first compound 0.1581 µM) was 0.341. The relative viability (NCI-H1975; first compound 0.5 µM) was 0.509, the relative viability (NCI-H2023; first compound 0.005 µM) was 0.371 and the relative viability (NCI-H2023; first compound 0.01581 µM) was 0.447. For the same molecule, the relative viability (NCI-H2023; first compound 0.05 µM) was 0.384, the relative viability (NCI-H2023; first compound 0.1581 µM) was 0.395 and the relative viability (NCI-H2023; first compound 0.5 µM) was 0.451. For the same molecule, the relative viability (NCI-H2085; first compound 0.005 µM) was 0.458, the relative viability (NCI-H2085; first compound 0.01581 µM) was 0.478 and the relative viability (NCI-H2085; first compound 0.05 µM) was 0.512. For the same molecule, the relative viability (NCI-H2085; first compound 0.1581 µM) was 0.512, the relative viability (NCI-H2085; first compound 0.5 µM) was 0.503 and the relative viability (NCI-H2342; first compound 0.005 µM) was 0.495. The relative viability (NCI-H2342; first compound 0.01581 µM) was 0.524, the relative viability (NCI-H2342; first compound 0.05 µM) was 0.536 and the relative viability (NCI-H2342; first compound 0.5 µM) was 0.469. It also gave a relative viability (NCI-H358; first compound 0.005 µM) of 0.123, a relative viability (NCI-H358; first compound 0.01581 µM) of 0.165 and a relative viability (NCI-H358; first compound 0.05 µM) of 0.122. For the same molecule, the relative viability (NCI-H358; first compound 0.1581 µM) was 0.133, the relative viability (NCI-H358; first compound 0.5 µM) was 0.157 and the relative viability (NCI-H441; first compound 0.005 µM) was 0.214. The relative viability (NCI-H441; first compound 0.01581 µM) was 0.262, the relative viability (NCI-H441; first compound 0.05 µM) was 0.248 and the relative viability (NCI-H441; first compound 0.1581 µM) was 0.216. The relative viability (NCI-H441; first compound 0.5 µM) was 0.207, the relative viability (NCI-H460; first compound 0.005 µM) was 0.147 and the relative viability (NCI-H460; first compound 0.01581 µM) was 0.196. It also gave a relative viability (NCI-H460; first compound 0.05 µM) of 0.141, a relative viability (NCI-H460; first compound 0.1581 µM) of 0.22 and a relative viability (NCI-H460; first compound 0.5 µM) of 0.209. The relative viability (NCI-H838; first compound 0.005 µM) was 0.227, the relative viability (NCI-H838; first compound 0.01581 µM) was 0.227 and the relative viability (NCI-H838; first compound 0.05 µM) was 0.211. It also gave a relative viability (NCI-H838; first compound 0.1581 µM) of 0.2, a relative viability (NCI-H838; first compound 0.5 µM) of 0.229 and a relative viability (SK-LU-1; first compound 0.005 µM) of 0.372. For the same molecule, the relative viability (SK-LU-1; first compound 0.01581 µM) was 0.396, the relative viability (SK-LU-1; first compound 0.05 µM) was 0.386 and the relative viability (SK-LU-1; first compound 0.1581 µM) was 0.367. It also gave a relative viability (SK-LU-1; first compound 0.5 µM) of 0.37.
